In patent publication US10138242B2, “Pyrazolopyridine derivatives and their use in therapy” (HELMHOLTZ ZENTRUM MUENCHEN—DEUTSCHES FORSCHUNGSZENTRUM FUER …, priority 2015, dated 2018):
Read-outs that look alike come from different tables or passages of the source.

How the values were obtained:
[1] = molecular target: PEX5-PEX14 complex (biotin-coupled PEX5 peptide, His-tagged T. brucei PEX14) (Trypanosoma brucei brucei, UniProt Q38CL4); test: biochemical; assay type: binding; details: 30 nM PEX5, 30 nM PEX14, quadruplicate
Chain of PEX5-PEX14 complex (biotin-coupled PEX5 peptide, His-tagged T. brucei PEX14) (Q38CL4 1-366, one chain of several): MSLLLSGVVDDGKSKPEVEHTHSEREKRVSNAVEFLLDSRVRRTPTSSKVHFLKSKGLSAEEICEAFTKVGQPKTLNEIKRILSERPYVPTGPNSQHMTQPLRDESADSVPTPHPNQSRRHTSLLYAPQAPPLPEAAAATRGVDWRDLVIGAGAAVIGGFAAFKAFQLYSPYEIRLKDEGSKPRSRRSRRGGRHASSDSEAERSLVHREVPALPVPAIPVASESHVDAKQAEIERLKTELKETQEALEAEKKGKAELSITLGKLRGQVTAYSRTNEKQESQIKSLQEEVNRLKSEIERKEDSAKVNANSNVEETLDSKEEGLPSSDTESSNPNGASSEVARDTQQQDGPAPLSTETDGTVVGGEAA
From the text: The assay uses two types of beads: donor beads are coupled with streptavidin, and acceptor beads are coupled with an anti His-tag antibody. Upon excitation with light of a wavelength of 680 nm the donor beads produce reactive oxygen species that travel in solution only for a limited distance. If the acceptor beads are within that travel distance, it will absorb the reactive oxygen and emit light in the range of 520-620 nm. […] Thus, PEX5-PEX14 complex dissociation by a ligand caused decrease in light emission as the donor and acceptor beads were separated. Typically, we used 30 nM PEX5, 30 nM PEX14 and bead concentrations of 5 μg/mL. The PEX5-PEX14 complex was incubated with varying concentrations of inhibitor for 1 hour. Next, the beads were added and the system allowed to equilibrate for another hour. The raw data were fitted to four parameter sigmoidal curves by Origin software and EC50 values calculated. Each measurement was performed in quadruplicate and every experiment was accompanied with blank and reference samples (using non-biotynylated PEX5 peptide as a binding competitor).

[2] = test system: T. brucei brucei bloodstream form parasites (strain Lister 427); test: Antitrypanosomal activity assay (resazurin; FIG. 2); assay type: cell-based; details: Trypanosoma brucei; 66 h + 6 h resazurin
Protocol: (A) The trypanosoma cell count and growth were evaluated at different doses of compounds of the invention.
Antitrypanosomal activity was tested on T. brucei brucei bloodstream from parasites (strain—Lister 427, VATMITat 1.2). Stock solutions of compounds (50 mM) were prepared in DMSO. Two fold serial dilutions of each compound (10 wells in each row) were prepared in 96 well plates in HMI111 medium (100 μl/well; quadruplicates; cf. also Hirumi et al., J. Parasitol. 75 (1989), 985-989). One well without compound, and one well with media alone were included in each row. […] The plates were incubated for 66 hours at 37° C. in the incubator with 5% CO2. 20 μl resazurin (Sigma, 0.125 mg/ml in Hanks Balanced Salt Solution) was added to all wells and the plate was further incubated for 6 hours. Change in color of resazurin (blue to pink) by living cells was measured with a 96 well plate reader (excitation at 530 nm, emission at 585 nm, filter cut-off: 570 nm). Percent inhibition values were calculated by setting the well without compound to “0% inhibition”.

[3] = read-out: AlphaScreen EC50 [μM] (±SD)

## NC(=O)Cn1nc(C(=O)NCc2ccccc2)c2c1CCN(Cc1c[nH]c3ccccc13)C2 [Compound 4]
[1]; [3]
  EC50: 1380 µM
[2]
  IC50: 51 µM

## COc1ccc(CN2CCc3[nH]nc(C(=O)NCc4cccc5ccccc45)c3C2)c2ccccc12 [Compound 5]
[1]; [3]
  EC50: 16.5 µM
[2]
  IC50: 3.4 µM

## O=C(NCc1ccccc1)c1nn(-c2ccccc2)c2c1CN(Cc1c[nH]c3ccccc13)CC2 [Compound 6]
[1]; [3]
  EC50: 18.3 µM
[2]
  IC50: 8 µM

## Cn1nc(C(=O)NCc2ccccc2)c2c1CCN(Cc1ccccc1)C2 [Compound 7]
[1]; [3]
  EC50: 4530 µM
[2]
  IC50: 45 µM

## Cn1nc(C(=O)NCc2ccccc2)c2c1CCN(Cc1ccc(-c3ccccc3)cc1)C2 [Compound 9]
[1]; [3]
  EC50: 27.8 µM
[2]
  IC50: 6.8 µM

## Cn1nc(C(=O)NCc2ccccc2)c2c1CCN(Cc1cccc(-c3ccccc3)c1)C2 [Compound 10]
[1]; [3]
  EC50: 33.6 µM
[2]
  IC50: 7.4 µM

## Cn1nc(C(=O)NCc2ccccc2)c2c1CCN(Cc1c[nH]c3cc(OCc4ccccc4)ccc13)C2 [Compound 11]
[1]; [3]
  EC50: 22.1 µM
[2]
  IC50: 1.1 µM

## Cn1nc(C(=O)NCc2ccccc2)c2c1CCN(Cc1cccc3ccccc13)C2 [Compound 12]
[2]
  IC50: 12 µM

## COc1ccc(CN2CCc3c(c(C(=O)NCc4cccc5ccccc45)nn3CCN3CCOCC3)C2)c2ccccc12 [Compound 13]
[1]; [3]
  EC50: 6.72 µM
[2]
  IC50: 3.58 µM

## COc1ccc(CN2CCc3c(c(C(=O)NCc4cccc5ccccc45)nn3-c3cnccn3)C2)c2ccccc12 [Compound 14]
[1]; [3]
  EC50: 11.9 µM
[2]
  IC50: 3.61 µM

## COc1ccc(CN2CCc3c(c(C(=O)NCc4cccc5ccccc45)nn3C3CN(C(=O)C(C)(C)C)C3)C2)c2ccccc12 [Compound 15]
[1]; [3]
  EC50: 7.92 µM
[2]
  IC50: 1.47 µM

## COc1ccc(CN2CCc3c(c(C(=O)NCc4cccc5ccccc45)nn3C3CCCC3)C2)c2ccccc12 [Compound 16]
[1]; [3]
  EC50: 10.6 µM
[2]
  IC50: 2.35 µM

## COc1ccc(CN2CCc3c(c(C(=O)NCc4cccc5ccccc45)nn3Cc3ccccc3)C2)c2ccccc12 [Compound 17]
[1]; [3]
  EC50: 10.5 µM
[2]
  IC50: 2.56 µM

## COc1ccc(CN2CCc3c(c(C(=O)NCc4cccc5ccccc45)nn3C3CCC3)C2)c2ccccc12 [Compound 18]
[1]; [3]
  EC50: 11.1 µM
[2]
  IC50: 1.85 µM

## CCc1ccc(CN2CCc3c(c(C(=O)NCc4ccccc4)nn3CCO)C2)cc1 [Compound 23]
[1]; [3]
  EC50: 133 µM

## O=C(NCc1ccccc1)c1nn(CCO)c2c1CN(Cc1ccc(OC(F)(F)F)cc1)CC2 [Compound 24]
[1]; [3]
  EC50: 80.4 µM
[2]
  IC50: 25 µM

## O=C(NCc1ccccc1)c1nn(CCO)c2c1CN(Cc1ccn(-c3ccccc3)c1)CC2 [Compound 27]
[1]; [3]
  EC50: 196 µM
[2]
  IC50: 39 µM

## COC(=O)c1cccc2c(CN3CCc4c(c(C(=O)NCc5ccccc5)nn4CCO)C3)c[nH]c12 [Compound 28]
[1]; [3]
  EC50: 155 µM

## CC(=O)c1ccc(CN2CCc3c(c(C(=O)NCc4ccccc4)nn3CCO)C2)cc1 [Compound 29]
[1]; [3]
  EC50: 222 µM

## O=C(NCc1ccccc1)c1nn(CCO)c2c1CN(Cc1cc3ccccc3c3ccccc13)CC2 [Compound 30]
[1]; AlphaScreen EC50 [μM] (±SD)
  EC50: 29.8 µM
[2]
  IC50: 6.6 µM

## Cn1nc(C(=O)NCc2ccc3ccccc3c2)c2c1CCN(Cc1c[nH]c3ccccc13)C2 [Compound 31]
[1]; [3]
  EC50: 35.2 µM

## Cn1nc(C(=O)NCc2cccc3ccccc23)c2c1CCN(Cc1cccc3ccccc13)C2 [Compound 33]
[1]; [3]
  EC50: 41.8 µM

## COc1ccc(CN2CCc3c(c(C(=O)NCc4cccc5ccccc45)nn3-c3ccccc3)C2)c2ccccc12 [Compound 37]
[1]; [3]
  EC50: 7.61 µM
[2]
  IC50: 3.5 µM

## O=C(NCc1cccc2ccccc12)c1nn(CCO)c2c1CN(Cc1ccc(-c3ccccc3)cc1)CC2 [Compound 38]
[1]; [3]
  EC50: 10.4 µM
[2]
  IC50: 3.7 µM

## Cc1nc2sccn2c1CN1CCc2c(c(C(=O)NCc3ccccc3)nn2CCO)C1 [Compound 63]
[1]; [3]
  EC50: 171 µM

## O=C(NCc1ccccc1)c1nn(CCO)c2c1CN(CC1=CC(=O)C3C=C(Cl)C=CC3O1)CC2 (stereo not drawn) [Compound 64]
[1]; [3]
  EC50: 132 µM

## CC(NC(=O)c1nn(CCO)c2c1CN(Cc1cnn(-c3ccccc3)c1)CC2)c1ccccc1 (stereo not drawn) [Compound 65]
[1]; [3]
  EC50: 112 µM

## CC(NC(=O)c1nn(CCO)c2c1CN(Cc1ccc3ccoc3c1)CC2)c1ccccc1 (stereo not drawn) [Compound 66]
[1]; [3]
  EC50: 147 µM

## O=C(c1nn(Cc2ccccn2)c2c1CN(Cc1ccccc1)CC2)N1CCc2ccccc2C1 [Compound 67]
[1]; [3]
  EC50: 74.3 µM

## O=C(NCc1ccccc1)c1nn(CCO)c2c1CN(Cc1ccc3c(c1)OC=CO3)CC2 [Compound 68]
[1]; [3]
  EC50: 159 µM

## CC(NC(=O)c1nn(CCO)c2c1CN(Cc1cccc3c1OCO3)CC2)c1ccccc1 (stereo not drawn) [Compound 69]
[1]; [3]
  EC50: 151 µM

## Cn1nc(C(=O)NCc2ccccc2)c2c1CCN(Cc1noc3c1CCCC3)C2 [Compound 70]
[1]; [3]
  EC50: 9.69 µM

## CCc1ccc(CN2CCc3c(c(C(=O)NCc4ccccc4)nn3CCO)C2)cc1 [Compound 71]
[1]; [3]
  EC50: 150 µM

## O=C(NCc1ccccc1)c1nn(CCO)c2c1CN(Cc1ccccc1C(F)(F)F)CC2 [Compound 72]
[1]; [3]
  EC50: 223 µM

## O=C(CC1CC1)N1CCc2c(c(C(=O)N3CCc4ccccc4C3)nn2Cc2ccccn2)C1 [Compound 73]
[1]; [3]
  EC50: 220 µM

## O=C(NCc1ccccc1)c1nn(CCO)c2c1CN(Cc1ccccc1-c1ccco1)CC2 [Compound 74]
[1]; [3]
  EC50: 78.3 µM

## COc1cc(CN2CCc3c(c(C(=O)NCc4ccccc4)nn3CCO)C2)cc2c1OCO2 [Compound 75]
[1]; [3]
  EC50: 94.9 µM

## O=C(NCc1ccccc1)c1nn(CCO)c2c1CN(Cc1cccc(OC(F)F)c1)CC2 [Compound 76]
[1]; [3]
  EC50: 148 µM

## C=C(C)C1CC=C(CN2CCc3c(c(C(=O)NCc4ccccc4)nn3CCO)C2)CC1 (stereo not drawn) [Compound 77]
[1]; [3]
  EC50: 142 µM

## O=C(NCc1ccccc1)c1nn(CCO)c2c1CN(Cc1ccc(-c3ccccc3)cc1)CC2 [Compound 78]
[1]; [3]
  EC50: 68.8 µM

## C=CCn1nc(C(=O)NCc2ccccc2)c2c1CCN(Cc1ccc3ncccc3c1)C2 [Compound 79]
[1]; [3]
  EC50: 95.4 µM

## Cc1ccccc1-c1ccc(CN2CCc3c(c(C(=O)NCc4ccccc4)nn3CCO)C2)cc1 [Compound 80]
[1]; [3]
  EC50: 45.9 µM

## O=C(NCc1ccccc1)c1nn(CCO)c2c1CN(CC(c1ccccc1)c1ccccc1)CC2 [Compound 81]
[1]; [3]
  EC50: 74.9 µM

## O=C(NCc1ccccc1)c1nn(CCO)c2c1CN(Cc1cnn(-c3ccccc3)c1)CC2 [Compound 82]
[1]; [3]
  EC50: 149 µM

## O=C(NCc1ccccc1)c1nn(CCO)c2c1CN(Cc1cccn1-c1ccccn1)CC2 [Compound 83]
[1]; [3]
  EC50: 132 µM

## CC(NC(=O)c1nn(CCO)c2c1CN(CC1Cc3ccccc3CN1C)CC2)c1ccccc1 (stereo not drawn) [Compound 86]
[1]; [3]
  EC50: 169 µM

## CC(NC(=O)c1nn(CCO)c2c1CN(C(=O)c1ncc3sccn13)CC2)c1ccccc1 (stereo not drawn) [Compound 87]
[1]; [3]
  EC50: 230 µM

## COC(=O)c1ccc2c(CN3CCc4c(c(C(=O)NCc5cccc6ccccc56)nn4CCO)C3)c[nH]c2c1 [Compound 108]
[1]; [3]
  EC50: 38.7 µM

## O=C(NCc1cccc2ccccc12)c1nn(CCO)c2c1CN(Cc1c[nH]c3cc(OCc4ccccc4)ccc13)CC2 [Compound 113]
[1]; [3]
  EC50: 72.1 µM

## O=C(NCc1cccc2ccccc12)c1nn(CCO)c2c1CN(CCc1ccccc1)CC2 [Compound 116]
[1]; [3]
  EC50: 230 µM

## O=C(NCc1cccc2ccccc12)c1nn(CCO)c2c1CN(Cc1c[nH]c3c(C(=O)O)cccc13)CC2 [Compound 117]
[1]; [3]
  EC50: 391 µM

## Cc1ccc(CCN2CCc3c(c(C(=O)NCc4cccc5ccccc45)nn3CCO)C2)cc1 [Compound 118]
[1]; [3]
  EC50: 632 µM

## CCOC(=O)CN(Cc1cccc2ccccc12)C(=O)c1nn(CCO)c2c1CN(Cc1ccc(OC)c3ccccc13)CC2 [Compound 121]
[2]
  IC50: 5 µM

## COc1ccc(CN2CCc3c(c(C(=O)NCc4cccc5ccccc45)nn3CCC(C)(C)C)C2)c2ccccc12 [Compound 124]
[2]
  IC50: 3.5 µM
